≈ marks a conversion by molar mass, not a printed value.
What was measured:
[1] = Antioxidant activity assessed as DPPH radical scavenging activity; type: functional
MCF7 [2] = test: Anticancer activity against human MCF7 cells assessed as inhibition of cell proliferation measured after 48 hrs by MTT assay; type: functional, cell-based; conditions: MCF7, 48 h
Staphylococcus aureus [3] = test: Antibacterial activity against Staphylococcus aureus assessed as zone of inhibition at 20 mg/ml; type: functional; conditions: read-out: IZ
Candida albicans [4] = test: […] activity against Candida albicans assessed as zone of inhibition at 20 mg/ml; type: functional; conditions: read-out: IZ
Staphylococcus simulans = test: Antibacterial activity against Staphylococcus simulans assessed as zone of inhibition at 20 mg/ml; type: functional; conditions: read-out: IZ
Staphylococcus aureus [5] = test: Antibacterial activity against Staphylococcus aureus by dilution assay; type: functional
Staphylococcus aureus [6] = test: Antibacterial activity against Staphylococcus aureus ATCC 29213 assessed as reduction in bacterial growth; type: functional
[7] = tested on: Staphylococcus epidermidis; test: Antibacterial activity against Staphylococcus epidermidis assessed as reduction in bacterial growth; type: functional
Escherichia coli [8] = test: Antibacterial activity against Escherichia coli assessed as bacterial growth inhibition; type: functional
Bacillus subtilis = test: Antibacterial activity against Bacillus subtilis assessed as reduction in bacterial growth; type: functional
Raji = test: Antiproliferative activity against human Raji cells assessed as reduction in cell growth incubated for 72 hrs by MTT assay; type: functional, cell-based
[9] = Antiproliferative activity against human U87 cells assessed as reduction in cell viability by MTT assay; type: functional, cell-based, U-87MG ATCC; conditions: U-87 MG
Bacillus cereus [10] = test: Antibacterial activity against Bacillus cereus assessed as reduction in microbial growth after 18 hrs by MTT based broth dilution method; type: functional, organism-based
RAW264.7 = test: Anti-inflammatory activity against mouse RAW264.7 cells assessed as inhibition of LPS-induced NO production at 50 ug/ml relative to control; type: functional; design: scale not given: the % may be the effect or the level left; conditions: dose 50 µg/ml
Mus musculus = test: Antiinflammatory activity in Swiss albino mouse model of carrageenan-induced paw edema assessed as reduction in paw edema; type: functional; design: scale not given: the % may be the effect or the level left
Aspergillus flavus = test: Antifungal activity against Aspergillus flavus assessed as zone of inhibition at 20 mg/ml; type: functional; conditions: read-out: IZ
Fusarium oxysporum [11] = test: Antifungal activity against Fusarium oxysporum assessed as zone of inhibition at 20 mg/ml; type: functional; conditions: read-out: IZ
Fusarium oxysporum [12] = test: Antifungal activity against Fusarium oxysporum assessed as zone of inhibition at 50 uM; type: functional; conditions: read-out: IZ
Escherichia coli [13] = test: Antibacterial activity against Escherichia coli assessed as zone of inhibition at 20 mg/ml; type: functional; conditions: read-out: IZ
Pseudomonas aeruginosa = test: Antibacterial activity against Pseudomonas aeruginosa assessed as zone of inhibition at 20 mg/ml; type: functional; conditions: read-out: IZ
Serratia marcescens = test: Antibacterial activity against Serratia marcescens assessed as zone of inhibition at 20 mg/ml; type: functional; conditions: read-out: IZ
Micrococcus luteus = test: Antibacterial activity against Micrococcus luteus assessed as zone of inhibition at 20 mg/ml; type: functional; conditions: read-out: IZ
Trichophyton rubrum = test: Antifungal activity against Trichophyton rubrum assessed as zone of inhibition at 20 mg/ml; type: functional; conditions: read-out: IZ
Geotrichum candidum = test: Antifungal activity against Geotrichum candidum assessed as zone of inhibition at 20 mg/ml; type: functional; conditions: read-out: IZ
Candida albicans [14] = test: Antifungal activity against Candida albicans assessed as zone of inhibition at 20 mg/ml; type: functional; conditions: read-out: IZ
Bacillus cereus [15] = test: Antibacterial activity against Bacillus cereus assessed as zone of inhibition at 20 mg/ml; type: functional; conditions: read-out: IZ
Scopulariopsis = test: Antifungal activity against Scopulariopsis assessed as zone of inhibition at 20 mg/ml; type: functional; conditions: read-out: IZ
HCT-15 = test: Anticancer activity against human HCT-15 cells assessed as cell growth inhibition; type: functional, cell-based
MCF7 [16] = test: Cytotoxicity against human MCF7 cells […] by MTT reduction assay; type: functional, cell-based
LS180 = test: cells; conditions: Homo sapiens
Description: Cytotoxicity against human LS180 cells at 50 uM by MTT reduction assay

HeLa [17] = test: cells; conditions: Homo sapiens
Description: Cytotoxicity against human HeLa cells at 50 uM by MTT reduction assay

K562 = test: cells; conditions: Homo sapiens
Description: Cytotoxicity against human K562 cells at 50 uM by MTT reduction assay

A549 = test: Anticancer activity against human A549 cells assessed as reduction in cell viability; type: functional, cell-based
L1210 [18] = test: Cytotoxicity against […] cells assessed as reversal of multi drug resistance at 1 uM; type: functional, cell-based; conditions: Mus musculus
HCT-116/VM46 = test: cells; conditions: Homo sapiens
HCT-116 [19] = test: Cytotoxicity against human HCT-116 cells assessed as reversal of multi drug resistance at 1 uM; type: functional, cell-based
L1210 [20] = test: Cytotoxicity against mouse L1210 cells assessed as reduction in cell viability; type: functional, cell-based
Salmonella enterica = test: Antibacterial activity against Salmonella enterica assessed as bacterial growth inhibition by broth dilution method; type: functional
HCT-116 [21] = test: Inhibition of CKII in human HCT-116 cells at 50 uM assessed as inhibition; type: cell-based
MCF7 [22] = test: Inhibition of CKII in human MCF7 cells at 50 uM assessed as inhibition; type: cell-based
HeLa [23] = test: Antiproliferative activity against human HeLa cells assessed as reduction in cell proliferation; type: functional, cell-based
MCF7 [24] = test: Cytotoxicity activity against human MCF7 cells assessed as decreased cell viability; type: functional, cell-based
[25] = Cytotoxicity against human HCC-S102 cells assessed as reduction in cell viability; type: functional, cell-based
MES-SA = test: Cytotoxicity against human MES-SA cells assessed as reduction in cell viability incubated for 72 hrs by MTT assay; type: functional, cell-based
[26] = Induction of angiogenesis in human HUVEC cells; type: functional
Ehrlich = test: cells; conditions: Mus musculus
Description: Anticancer activity against mouse EAC cells assessed as reduction in cell viability

Rattus norvegicus = organism: Rattus norvegicus; test: Antifibrotic activity in Sprague-Dawley rat model of BDL induced hepatic fibrosis assessed as […] fibrotic potential; type: functional

With `O=c1oc2ccccc2c2[se]c(CN3CCOCC3)c(Nc3cccnc3)c12` the IC50 [1] was 4 µM and the IC50 (MCF7 [2]) was 41 µM.

With `Cc1cccc2c1oc(=O)c1cn[nH]c12` the zone of inhibition at 20000 µg/mL (Staphylococcus aureus [3]) was 14 mm, the zone of inhibition at 20000 µg/mL (Candida albicans [4]) was 14 mm and the zone of inhibition at 20000 µg/mL (Staphylococcus simulans) was 14 mm. It also gave an MIC (Staphylococcus aureus [5]) of 100 µM (≈ 20 µg/mL).

In the case of `CC1=Nc2[nH]n(-c3ccccc3)c(=O)c2C2c3cc(Cl)cc(Cl)c3OC(=O)C12` (stereo not given), the MIC (Staphylococcus aureus [6]) is reported as 25 µM (≈ 10.4 µg/mL), the MIC [7] is reported as 6.3 µM (≈ 2.61 µg/mL) and the MIC (Escherichia coli [8]) is reported as 6.3 µM (≈ 2.61 µg/mL). The MIC (Bacillus subtilis) was 6.3 µM (≈ 2.61 µg/mL).

Work on `COc1cccc(C2C3=C(CCCC3=O)Oc3c2c(=O)oc2ccccc32)c1` (stereo not given) yielded an IC50 (Raji) of 73 µM.

For `N#CC1=C(N)Oc2c(c(=O)oc3ccccc23)C12C(=O)N(CCCCCCCCCCBr)c1ccccc12` (stereo not given), the IC50 [9] was 39 µM and the IC50 (Bacillus cereus [10]) was 39 µM.

`CCOc1nc(-c2ccco2)cc2c1c(=O)oc1ccccc12` gave an Activity (RAW264.7) of 62% and an Activity (Mus musculus) of 89%.

Work on `CCOC(=O)c1sc2c(c1N)c(=O)oc1ccccc12` yielded a zone of inhibition at 20000 µg/mL (Aspergillus flavus) of 0 mm, a zone of inhibition at 20000 µg/mL (Fusarium oxysporum [11]) of 0 mm and a zone of inhibition at 20000 µg/mL (Staphylococcus aureus [3]) of 9 mm. The zone of inhibition at 50 µM (Fusarium oxysporum [12]) was 16 mm, the zone of inhibition at 20000 µg/mL (Escherichia coli [13]) was 0 mm and the zone of inhibition at 20000 µg/mL (Pseudomonas aeruginosa) was 10 mm. For the same compound, the zone of inhibition at 20000 µg/mL (Serratia marcescens) was 8 mm, the zone of inhibition at 20000 µg/mL (Micrococcus luteus) was 8 mm and the zone of inhibition at 20000 µg/mL (Trichophyton rubrum) was 0 mm. It also gave a zone of inhibition at 20000 µg/mL (Geotrichum candidum) of 0 mm, a zone of inhibition at 20000 µg/mL (Candida albicans [14]) of 13 mm and a zone of inhibition at 20000 µg/mL (Bacillus cereus [15]) of 0 mm. The zone of inhibition at 20000 µg/mL (Scopulariopsis) was 8 mm.

Compound `CC(=O)/C=C1\c2c(c3ccccc3oc2=O)OC1(c1ccccc1)N(C)C` (stereo not given) has an IC50 (HCT-15) of 8 µM.

Work on `O=C1CCCc2nc3c(c(-c4ccccc4[N+](=O)[O-])c21)c(=O)oc1ccccc13` yielded an IC50 (MCF7 [16]) of 58.6 µM, an IC50 (LS180) greater than 100 µM and an IC50 (HeLa [17]) of 29.8 µM. The IC50 (K562) was 25.4 µM and the IC50 (A549) was 0.14 µM.

With `O=c1oc2cc(O)c(O)cc2c2c(-c3ccc(O)c(O)c3)cn(CCc3ccc(O)c(O)c3)c12` the IC50 (L1210 [18]) was 10 µM, the IC50 (HCT-116/VM46) was 60 µM and the IC50 (HCT-116 [19]) was 12 µM. For the same compound, the IC50 (L1210 [20]) was 10 µM.

With `CCc1c(C)c(=O)oc2c1c(=O)oc1ccccc12` the MIC (Salmonella enterica) was 50 µM (≈ 12.8 µg/mL).

With `O=c1oc2cc(O)ccc2c2oc3cc(O)ccc3c12` the inhibition (HCT-116 [21]) was 30% and the inhibition (MCF7 [22]) was 50%.

`O=C(O)Cc1ccccc1Nc1c(Cl)cccc1Cl` [DICLOFENAC] showed an Activity (RAW264.7) of 62%.

With `O=C(NO)c1cc2c(=O)oc3ccccc3c2s1` the IC50 (HeLa [23]) was 8.84 µM.

With `Cc1ccc2nc3c(c(-c4ccccc4)c2c1)c(=O)oc1ccccc13` the IC50 (MCF7 [24]) was 0.05 µM.

Compound `COc1cc(-c2c3c4cc(OC)c(O)cc4oc(=O)c3n3ccc4cc(O)c(OC)cc4c23)ccc1O` [LAMELLARIN D] has an IC50 [25] of 3.2 µM.

Compound `CN1CCN(Cc2[se]c3c(c2Br)c(=O)oc2ccccc23)CC1` has an IC50 [1] of 62 µM, an IC50 (MES-SA) of 9.4 µM and an Activity [26] of 84%.

Work on `CCc1ccccc1-n1c(N)c(C#N)c2c(c(=O)oc3ccc4ccccc4c32)c1=O` yielded an IC50 (Ehrlich) of 246 µM and an Activity (Rattus norvegicus) of 193.07 µmol/L.

Source: ChEMBL document CHEMBL5230136, “A review: Biologically active 3,4-heterocycle-fused coumarins” (Eur J Med Chem, 2021)
